Data taken from ChEMBL document CHEMBL1201862, “PubChem BioAssay data set” (2004).
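Interpolation was linear, between the two tested concentrations surrounding the appropriate level; five concentrations were tested over 48 hours in 96-well plates. GI50: concentration for 50% inhibition of growth.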 Active and inactive are the calls of the source. Rule as the data show it: active = GI50 up to about 1.1 µM and inactive = higher.

Assays:
Assay in all cases: inhibition of tumour cell growth, NCI panel, 48 h
DLD-1 = system: DLD-1
K562 = system: K562
Malme-3M = system: Malme-3M
NCI-H23 = system: NCI-H23
MOLT-4 = system: MOLT-4
RXF 393 = system: RXF 393
SW-620 = system: SW-620
HOP-92 = system: HOP-92
M14 = system: M14
SF-295 = system: SF-295
SK-MEL-28 = system: SK-MEL-28
TK-10 = system: TK-10
LOX IMVI = system: LOX IMVI
SK-MEL-5 = system: SK-MEL-5
A549 = system: A549
OVCAR-8 = system: OVCAR-8
SF-539 = system: SF-539
OVCAR-5 = system: OVCAR-5
HOP-62 = system: HOP-62
SNB-75 = system: SNB-75
HT-29 = system: HT-29
U-251 = system: U-251
SK-OV-3 = system: SK-OV-3
HCC 2998 = system: HCC 2998
CCRF-CEM = system: CCRF-CEM
HOP-18 = system: HOP-18
NCI-H460 = system: NCI-H460
LXFL 529 = system: LXFL 529
CAKI-1 = system: CAKI-1
SR = system: SR
OVCAR-4 = system: OVCAR-4
KM12 = system: KM12
IGROV-1 = system: IGROV-1
COLO 205 = system: COLO 205
SK-MEL-2 = system: SK-MEL-2
HCT-15 = system: HCT-15
DMS-273 = system: DMS-273
UO-31 = system: UO-31
NCI-H522 = system: NCI-H522
NCI-H226 = system: NCI-H226
UACC-257 = system: UACC-257
UACC-62 = system: UACC-62
SN12C = system: SN12C
DMS-114 = system: DMS-114
A498 = system: A498
786-0 = system: 786-0
KM-20L2 = system: KM-20L2
HCT-116 = system: HCT-116
SNB-78 = system: SNB-78
OVCAR-3 = system: OVCAR-3
NCI/ADR-RES = system: NCI/ADR-RES
BT-549 = system: BT-549
RPMI-8226 = system: RPMI-8226
MDA-MB-435 = system: MDA-MB-435
MDA-N = system: MDA-N
SNB-19 = system: SNB-19
DU-145 = system: DU-145
HL-60 = system: HL-60
MCF7 = system: MCF7
ACHN = system: ACHN
PC-3 = system: PC-3
SF-268 = system: SF-268
MDA-MB-231 = system: MDA-MB-231
T47D = system: T47D
EKVX = system: EKVX
Hs-578T = system: Hs-578T

Cc1coc2c1C(=O)C(=O)c1ccccc1-2
GI50 (DLD-1): 1.98 µM (inactive) | GI50 (K562): 0.335 µM (active) | GI50 (Malme-3M): 1.58 µM (inactive) | GI50 (NCI-H23): 1.92 µM (inactive) | GI50 (MOLT-4): 2.21 µM (inactive) | GI50 (RXF 393): 1.74 µM (inactive) | GI50 (SW-620): 1.41 µM (inactive) | GI50 (HOP-92): 0.401 µM (active) | GI50 (M14): 1.35 µM (inactive) | GI50 (SF-295): 1.65 µM (inactive) | GI50 (SK-MEL-28): 1.71 µM (inactive) | GI50 (TK-10): 1.9 µM (inactive) | GI50 (LOX IMVI): 0.305 µM (active) | GI50 (SK-MEL-5): 0.56 µM (active) | GI50 (A549): 2.04 µM (inactive) | GI50 (OVCAR-8): 0.322 µM (active) | GI50 (SF-539): 1.52 µM (inactive) | GI50 (OVCAR-5): 2.11 µM (inactive) | GI50 (HOP-62): 1.64 µM (inactive) | GI50 (SNB-75): 1.72 µM (inactive) | GI50 (HT-29): 1.8 µM (inactive) | GI50 (U-251): 1.61 µM (inactive) | GI50 (SK-OV-3): 1.76 µM (inactive) | GI50 (HCC 2998): 1.9 µM (inactive) | GI50 (CCRF-CEM): 2.22 µM (inactive) | GI50 (HOP-18): < 0.01 µM (active) | GI50 (NCI-H460): 1.77 µM (inactive) | GI50 (LXFL 529): 0.403 µM (active) | GI50 (CAKI-1): 1.86 µM (inactive) | GI50 (SR): 1.38 µM (inactive) | GI50 (OVCAR-4): 1.82 µM (inactive) | GI50 (KM12): 1.81 µM (inactive) | GI50 (IGROV-1): 1.83 µM (inactive) | GI50 (COLO 205): 1.5 µM (inactive) | GI50 (SK-MEL-2): 1.87 µM (inactive) | GI50 (HCT-15): 1.27 µM | GI50 (DMS-273): 1.54 µM (inactive) | GI50 (UO-31): 3.1 µM (inactive) | GI50 (NCI-H522): 1.72 µM (inactive) | GI50 (NCI-H226): 1.21 µM (inactive) | GI50 (UACC-257): 0.21 µM (active) | GI50 (UACC-62): 1.59 µM (inactive) | GI50 (SN12C): 0.838 µM (active) | GI50 (DMS-114): 0.161 µM (active) | GI50 (A498): 1.83 µM (inactive) | GI50 (786-0): 1.84 µM (inactive) | GI50 (KM-20L2): 3.36 µM (inactive) | GI50 (HCT-116): 0.301 µM (active) | GI50 (SNB-78): 1.73 µM (inactive) | GI50 (OVCAR-3): 1.06 µM (active)

NC(Cc1ccc2oc3cc(=O)c4ccccc4c-3nc2c1)C(=O)O (stereo unspecified)
GI50 (NCI/ADR-RES): 47.4 µM (inactive) | GI50 (BT-549): 14.4 µM (inactive) | GI50 (RPMI-8226): 42.2 µM (inactive) | GI50 (DLD-1): 34.8 µM (inactive) | GI50 (K562): 34.2 µM (inactive) | GI50 (Malme-3M): 6.52 µM (inactive) | GI50 (NCI-H23): 4.31 µM (inactive) | GI50 (MDA-MB-435): 4.4 µM (inactive) | GI50 (MOLT-4): 41.1 µM (inactive) | GI50 (MDA-N): 6.73 µM (inactive) | GI50 (RXF 393): 77.6 µM (inactive) | GI50 (SW-620): 29.3 µM (inactive) | GI50 (HOP-92): > 78.7 µM (inactive) | GI50 (M14): 12.5 µM (inactive) | GI50 (SF-295): 22.3 µM (inactive) | GI50 (SK-MEL-28): 25.8 µM (inactive) | GI50 (TK-10): 69.7 µM (inactive) | GI50 (SNB-19): 22.3 µM (inactive) | GI50 (LOX IMVI): 13.4 µM (inactive) | GI50 (SK-MEL-5): 4.92 µM (inactive) | GI50 (A549): 16.7 µM (inactive) | GI50 (OVCAR-8): 37.4 µM (inactive) | GI50 (SF-539): 20.3 µM (inactive) | GI50 (OVCAR-5): 66.7 µM (inactive) | GI50 (HOP-62): 25.9 µM (inactive) | GI50 (SNB-75): 11.2 µM (inactive) | GI50 (HT-29): 28.7 µM (inactive) | GI50 (U-251): 26.2 µM (inactive) | GI50 (DU-145): 15.5 µM (inactive) | GI50 (HL-60): 40.8 µM (inactive) | GI50 (SK-OV-3): > 100 µM (inactive) | GI50 (HCC 2998): 16 µM (inactive) | GI50 (CCRF-CEM): 40.7 µM (inactive) | GI50 (HOP-18): 25.8 µM (inactive) | GI50 (NCI-H460): 11.5 µM (inactive) | GI50 (LXFL 529): 55.5 µM (inactive) | GI50 (CAKI-1): > 79.4 µM (inactive) | GI50 (MCF7): 2.86 µM (inactive) | GI50 (SR): 16.6 µM (inactive) | GI50 (OVCAR-4): 67.5 µM (inactive) | GI50 (KM12): 39.2 µM (inactive) | GI50 (ACHN): 55.7 µM (inactive) | GI50 (IGROV-1): 68.2 µM (inactive) | GI50 (COLO 205): 6.97 µM (inactive) | GI50 (SK-MEL-2): 22.6 µM (inactive) | GI50 (PC-3): > 83 µM (inactive) | GI50 (HCT-15): 17.8 µM | GI50 (SF-268): 43 µM (inactive) | GI50 (DMS-273): 22.4 µM (inactive) | GI50 (UO-31): 33.8 µM (inactive) | GI50 (MDA-MB-231): > 79.6 µM (inactive) | GI50 (NCI-H522): 39.8 µM (inactive) | GI50 (NCI-H226): 27.3 µM (inactive) | GI50 (T47D): 38.5 µM (inactive) | GI50 (UACC-257): 20.5 µM (inactive) | GI50 (UACC-62): 11.7 µM (inactive) | GI50 (SN12C): 16.4 µM (inactive) | GI50 (DMS-114): 13.9 µM (inactive) | GI50 (A498): 70.6 µM (inactive) | GI50 (786-0): 50.2 µM (inactive) | GI50 (EKVX): > 83.4 µM (inactive) | GI50 (KM-20L2): 39.2 µM (inactive) | GI50 (HCT-116): 36 µM (inactive) | GI50 (SNB-78): > 100 µM (inactive) | GI50 (OVCAR-3): 19.6 µM (inactive) | GI50 (Hs-578T): 11.7 µM (inactive)
